In US20110152178A1 (priority 2008, published 2011):
“Also recorded” adds a separate entry of the source. Peptide text beside a SMILES is read from it. * marks the point of attachment. Stearoyl = CCCCCCCCCCCCCCCCCC(=O)*

Legend:
[1] = system: influenza virus A/PR/8/34 (H1N1); assay: Plaque assay on MDCK cells, inhibition of influenza virus infection (H1N1); assay type: cell-based, influenza type A virus; settings: for IC50: H1N1, plaque assay on MDCK cells; for anti-influenza virus activity in vitro: MDCK plaque assay
Description: (§1) Inhibition of influenza virus infection was determined by a plaque assay on MDCK cells. The MDCK cells in 6-well plates were incubated with 0.2 mL of influenza virus A/PR/8/34 solutions (100 to 200 pfu; pfu denotes plaque-forming units; subtype H1N1) or influenza virus A/Victria/1/75 solutions (100-200 pfu; subtype H3N2) each containing C18-D1, S2 (H-ARLPRTMVHPKPAQP-NH2), C18-S2 (stearoyl-ARLPRTMVHPKPAQP-NH2), or D1 (H-GLAMAPSVGHVRQHG-NH2). After incubation at 37° C. under 5% CO2 for 30 minutes, the supernatant was removed, and the cells were washed with PBS. 2 mL (per well) of 2×MEM+BSA containing 0.6% agarose, 0.01% of O-diethylaminoethyl cellulose dextran, 0.1% NaHCO3, and 0.01 μg/mL of acetyl trypsin was added, and the cells were incubated for two days. Viable cells were stained with a crystal violet solution (1 mg/mL in 20% ethanol), and the number of plaques was counted. The maximum infection activity (100%) was defined as the number of plaques in the case of the absence of C18-D1. The IC50 value (50% inhibitory concentration) of C18-D1 was obtained from the plot between log [f/(1−f)] and log [C18-D1], wherein f is the percent infection activity. The IC50 values of S2, C18-S2, and D1 were calculated in a similar manner.

influenza virus (H1N1) = system: influenza virus (H1N1); design: species or system mice; settings: mouse
[2] = system: influenza virus A/Victria/1/75 (H3N2); assay: Plaque assay on MDCK cells, inhibition of influenza virus infection (H3N2); assay type: cell-based, influenza type A virus
Description: as §1

[3] = Critical micelle concentration by NPN fluorescence in PBS; assay type: physicochemical; settings: PBS (pH 7.5), 1 μM NPN
Description: The critical micelle concentration (CMC) of the purified C18-D1 was determined in the following manner. PBS (pH 7.5) containing 1 μM of N-phenyl-1-naphthylamine (hereinafter abbreviated as “NPN”) was prepared. A C18-D1 peptide stock solution (1 mM) was serially diluted to final concentrations of […], 10, and 30 μM. These solutions were excited by a wavelength of 350 nm, and the fluorescence intensity (FI) at 450 nm was measured. The difference in FI between each diluted peptide solution and PBS alone was plotted as the ordinate, and the peptide solutions were plotted as the abscissa. The concentration at the intersection of the high concentration curve and the low concentration curve was determined. The critical micelle concentration (CMC) of the intersection was 1.3 μM.

[4] = target: hemagglutinin of influenza type A virus A/Victria/1/75 (H3N2) (influenza A virus A/Victria/1/75 (H3N2)); assay: cell-based or functional assay
[5] = target: hemagglutinin of influenza type A virus A/PR/8/34 (H1N1) (influenza A virus A/PR/8/34 (H1N1)) (UniProt P03452); assay: cell-based or functional assay

Molecule: H-ARLPRTMVHPKPAQP-NH2 [S2-NH2, H-ARLPRTMVHPKPAQP-NH2]
- IC50 [1]: > 100 µM

Molecule: CCCCCCCCCCCCCCCCCC(=O)N[C@@H](C)C(=O)N[C@@H](CCCNC(=N)N)C(=O)N[C@@H](CC(C)C)C(=O)N1CCC[C@H]1C(=O)N[C@@H](CCCNC(=N)N)C(=O)N[C@H](C(=O)N[C@@H](CCSC)C(=O)N[C@H](C(=O)N[C@@H](Cc1c[nH]cn1)C(=O)N1CCC[C@H]1C(=O)N[C@@H](CCCCN)C(=O)N1CCC[C@H]1C(=O)N[C@@H](C)C(=O)N[C@@H](CCC(N)=O)C(=O)N1CCC[C@H]1C(N)=O)C(C)C)[C@@H](C)O [C18-S2, stearoyl ARLPRTMVHPKPAQP-NH2] (Stearoyl-ARLPRTMVHPKPAQP-NH2)
- in vivo effect on influenza virus infection (influenza virus (H1N1)): ineffective in vivo; also recorded: caused early mortality
- IC50 [1]: 10 µM
- anti-influenza virus activity in vitro [1]: potent anti-influenza virus effect in vitro; also recorded: excellent anti-influenza virus activity

Molecule: CCCCCCCCCCCCCCCCCC(=O)NCC(=O)N[C@@H](CC(C)C)C(=O)N[C@@H](C)C(=O)N[C@@H](CCSC)C(=O)N[C@@H](C)C(=O)N1CCC[C@H]1C(=O)N[C@@H](CO)C(=O)N[C@H](C(=O)NCC(=O)N[C@@H](Cc1c[nH]cn1)C(=O)N[C@H](C(=O)N[C@@H](CCCNC(=N)N)C(=O)N[C@@H](CCC(N)=O)C(=O)N[C@@H](Cc1c[nH]cn1)C(=O)NCC(N)=O)C(C)C)C(C)C [C18-D1, (stearoyl)-Gly Leu Ala Met Ala Pro Ser Val Gly His Val Arg Gln His Gly-NH2] (Stearoyl-GLAMAPSVGHVRQHG-NH2)
- IC50 ([2]; H3N2, plaque assay on MDCK cells): 7.5 µM
- infection of MDCK cells with H3N2 ([2]; in vitro, MDCK plaque assay): inhibited
- mice survived (influenza virus (H1N1); in vivo): ≥ 80%
- IC50 [1]: 11 µM
- anti-influenza virus activity in vitro [1]: inhibited
- anti-influenza virus activity in vitro ([1]; listed as 018-D1): excellent anti-influenza virus activity
- critical micelle concentration (CMC) [3]: 1.3 µM

Molecule: H-GLAMAPSVGHVRQHG-NH2 [D1-NH2, H-GLAMAPSVGHVRQHG-NH2]
- IC50 [1]: > 100 µM

Molecule: Stearoyl-GLAMAPSVGHVRQHG-NH2 [C18-D1 (stearoyl-Gly Leu Ala Met Ala Pro Ser Val Gly His Val Arg Gln His Gly-NH2), as self-assembly]
- IC50 (plaque assay on MDCK cells, inhibition of influenza virus infection) [4]: 7.5 µM
- IC50 (plaque assay on MDCK cells, inhibition of influenza virus infection) [5]: 11 µM
